“And” between values parts separate entries of the source, which are not always exact repeats. Identical values can stand only once. Records with an inconclusive call do not appear.
Tested on: CD8F1 mice, subcutaneous mammary adenocarcinoma, T/C%
Assay: NCI In Vivo Anticancer Drug Screen. Data for tumor model Mammary Adenocarcinoma CD8F1 (subcutaneous) in CD8F1
Conditions: higher = larger tumour
How it was run: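 Ratio of treated to vehicle-control outcome, based on either survival or tumor size, in mice bearing transplantable tumors given the test compound.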

[1] = endpoint: median tumor weight change, dose: 62.5 mg/kg/injection, schedule: Q01DX001 (ip), vehicle: saline with Tween-80
[2] = endpoint: median tumor weight change, dose: 125.0 mg/kg/injection, schedule: Q01DX001 (ip), vehicle: saline with Tween-80
[3] = endpoint: median tumor weight change, dose: 250.0 mg/kg/injection, schedule: Q01DX001 (ip), vehicle: saline with Tween-80
[4] = endpoint: median tumor weight (est.), dose: 12.5 mg/kg/injection, schedule: Q07DX005 (ip), vehicle: saline with Tween-80
[5] = endpoint: median tumor weight (est.), dose: 25.0 mg/kg/injection, schedule: Q07DX005 (ip), vehicle: saline with Tween-80
[6] = endpoint: median tumor weight (est.), dose: 50.0 mg/kg/injection, schedule: Q07DX005 (ip), vehicle: saline with Tween-80
[7] = endpoint: median tumor weight (est.), dose: 100.0 mg/kg/injection, schedule: Q07DX005 (ip), vehicle: saline with Tween-80
[8] = endpoint: median tumor weight change, dose: 125.0 mg/kg/injection, schedule: Q01DX001 (ip), vehicle: Klucel (hydroxypropylcellulose) (HPC)
[9] = endpoint: median tumor weight change, dose: 250.0 mg/kg/injection, schedule: Q01DX001 (ip), vehicle: Klucel (hydroxypropylcellulose) (HPC)
[10] = endpoint: median tumor weight change, dose: 500.0 mg/kg/injection, schedule: Q01DX001 (ip), vehicle: Klucel (hydroxypropylcellulose) (HPC)
[11] = endpoint: median tumor weight change, dose: 500.0 mg/kg/injection, schedule: Q01DX001 (ip), vehicle: saline with Tween-80
[12] = endpoint: median tumor weight (est.), dose: 20.0 mg/kg/injection, schedule: Q07DX005 (ip), vehicle: Klucel (hydroxypropylcellulose) (HPC)
[13] = endpoint: median tumor weight (est.), dose: 40.0 mg/kg/injection, schedule: Q07DX005 (ip), vehicle: Klucel (hydroxypropylcellulose) (HPC)
[14] = endpoint: median tumor weight (est.), dose: 160.0 mg/kg/injection, schedule: Q07DX005 (ip), vehicle: Klucel (hydroxypropylcellulose) (HPC)

O=C1CN(Cc2ccc3c(c2)OCO3)NO1
T/C [1]: 80 % of control and 84 % of control
T/C [2]: 113 % of control and 115 % of control
T/C [3]: 80 % of control and 83 % of control
T/C (endpoint: median tumor weight change, dose: 1000.0 mg/kg/injection, schedule: Q01DX001 (ip), vehicle: saline with Tween-80): 88 % of control

CCCCCCCCCCCCCCCCCC(=O)Nc1ccn(C2OC(CO)C(O)C2O)c(=O)n1 (configuration not stated)
T/C [4]: 98 % of control
T/C (endpoint: median tumor weight (est.), dose: 12.5 mg/kg/injection, schedule: Q07DX005 (ip), vehicle: suspension in saline): 93 % of control
T/C [5]: 52 % of control
T/C (endpoint: median tumor weight (est.), dose: 25.0 mg/kg/injection, schedule: Q07DX005 (ip), vehicle: suspension in saline): 27 % of control
T/C [6]: 49 % of control
T/C (endpoint: median tumor weight (est.), dose: 50.0 mg/kg/injection, schedule: Q07DX005 (ip), vehicle: suspension in saline): 45 % of control
T/C (endpoint: median tumor weight (est.), dose: 77.0 mg/kg/injection, schedule: Q07DX005 (ip), vehicle: saline with Tween-80): 25 % of control
T/C [7]: 13 % of control
T/C (endpoint: median tumor weight (est.), dose: 100.0 mg/kg/injection, schedule: Q07DX005 (ip), vehicle: suspension in saline): 53 % of control
T/C (endpoint: median tumor weight (est.), dose: 118.0 mg/kg/injection, schedule: Q07DX005 (ip), vehicle: saline with Tween-80): 7 % of control

CC(=O)Nc1ccc(/C=N/NC(N)=S)cc1
T/C (endpoint: median tumor weight change, dose: 31.25 mg/kg/injection, schedule: Q01DX001 (ip), vehicle: Klucel (hydroxypropylcellulose) (HPC)): 96 % of control
T/C (endpoint: median tumor weight change, dose: 62.5 mg/kg/injection, schedule: Q01DX001 (ip), vehicle: Klucel (hydroxypropylcellulose) (HPC)): 84 % of control
T/C [8]: 103 % of control
T/C [9]: 48 % of control
T/C [10]: 99 % of control

COc1cc(C)c(C2NC(=O)c3ccccc3N2)cc1C (configuration not stated)
T/C [8]: 69 % of control
T/C [9]: 76 % of control
T/C [10]: 91 % of control
T/C (endpoint: median tumor weight change, dose: 1000.0 mg/kg/injection, schedule: Q01DX001 (ip), vehicle: Klucel (hydroxypropylcellulose) (HPC)): 107 % of control
T/C (endpoint: median tumor weight change, dose: 2000.0 mg/kg/injection, schedule: Q01DX001 (ip), vehicle: Klucel (hydroxypropylcellulose) (HPC)): 84 % of control

Nc1cc2c3c(cccc3c1)C(=O)N(CCN1CCCC1)C2=O
T/C (endpoint: median tumor weight change, dose: 15.63 mg/kg/injection, schedule: Q01DX001 (ip), vehicle: saline with Tween-80): 114 % of control

COc1ccc2c(c1[N+](=O)[O-])CC[C@@H]1[C@@H]2CC[C@]2(C)C(=O)CC[C@@H]12
T/C [1]: 90 % of control
T/C [3]: 84 % of control
T/C [11]: 100 % of control

C[C@]12CC[C@@H]3c4ccc(O)cc4CC[C@H]3[C@@H]1CC[C@@H]2O
T/C (endpoint: median tumor weight (est.), dose: 6.25 mg/kg/injection, schedule: Q07DX005 (ip), vehicle: Klucel (hydroxypropylcellulose) (HPC)): 97 % of control
T/C (endpoint: median tumor weight (est.), dose: 25.0 mg/kg/injection, schedule: Q07DX005 (ip), vehicle: Klucel (hydroxypropylcellulose) (HPC)): 27 % of control

O=C(O)CCCCCCCC(=O)O
T/C (endpoint: median tumor weight change, dose: 225.0 mg/kg/injection, schedule: Q01DX001 (ip), vehicle: distilled water + Tween-80): 122 % of control
T/C (endpoint: median tumor weight change, dose: 450.0 mg/kg/injection, schedule: Q01DX001 (ip), vehicle: distilled water + Tween-80): 82 % of control

Cn1cnc([N+](=O)[O-])c1[Se]c1nc(N)nc2nc[nH]c12
T/C (endpoint: median tumor weight (est.), dose: 6.25 mg/kg/injection, schedule: Q07DX005 (ip), vehicle: water): 109 % of control
T/C (endpoint: median tumor weight (est.), dose: 12.5 mg/kg/injection, schedule: Q07DX005 (ip), vehicle: water): 104 % of control
T/C (endpoint: median tumor weight (est.), dose: 25.0 mg/kg/injection, schedule: Q07DX005 (ip), vehicle: water): 173 % of control
T/C (endpoint: median tumor weight (est.), dose: 50.0 mg/kg/injection, schedule: Q07DX005 (ip), vehicle: water): 215 % of control
T/C (endpoint: median tumor weight (est.), dose: 200.0 mg/kg/injection, schedule: Q07DX005 (ip), vehicle: water): 107 % of control

CCCC(=O)Oc1ccc(/C=N/NC(N)=S)nc1
T/C [4]: 279 % of control and 100 % of control
T/C [6]: 83 % of control and 101 % of control
T/C (endpoint: median tumor weight (est.), dose: 400.0 mg/kg/injection, schedule: Q07DX005 (ip), vehicle: saline with Tween-80): 121 % of control

Cc1cc2nc3c(=O)[nH]c(=O)nc-3n(CC(O)C(O)C(O)C(O)CO)c2cc1C (configuration not stated)
T/C (endpoint: median tumor weight (est.), dose: 200.0 mg/kg/injection, schedule: Q07DX005 (ip), vehicle: suspension in saline): 87 % of control and 100 % of control
T/C (endpoint: median tumor weight (est.), dose: 400.0 mg/kg/injection, schedule: Q07DX005 (ip), vehicle: suspension in saline): 58 % of control and 64 % of control

C/C=C(\C)C(=O)OC1C(C)C2(O)C(C=C(CO)CC3(O)C(=O)C(C)=CC32)C2C(C)(C)C12OC(=O)CCCCCCCCC (configuration not stated)
T/C (endpoint: median tumor weight (est.), dose: 0.06 mg/kg/injection, schedule: Q07DX005 (ip), vehicle: saline + alcohol): 91 % of control
T/C (endpoint: median tumor weight (est.), dose: 0.12 mg/kg/injection, schedule: Q07DX005 (ip), vehicle: saline + alcohol): 76 % of control
T/C (endpoint: median tumor weight (est.), dose: 0.25 mg/kg/injection, schedule: Q07DX005 (ip), vehicle: saline + alcohol): 92 % of control

CCCCCCCC(=O)OCC(=O)[C@]1(O)Cc2c(O)c3c(c(O)c2[C@@H](OC2CC(N)C(O)C(C)O2)C1)C(=O)c1c(OC)cccc1C3=O (some centres not stated)
T/C (endpoint: mean tumor weight, dose: 1.0 mg/kg/injection, schedule: Q07DX006 (ip), vehicle: saline): 62 % of control
T/C (endpoint: mean tumor weight, dose: 2.0 mg/kg/injection, schedule: Q07DX006 (ip), vehicle: saline): 19 % of control
T/C (endpoint: median tumor weight (est.), dose: 1.0 mg/kg/injection, schedule: Q07DX005 (ip), vehicle: saline): 64 % of control
T/C (endpoint: median tumor weight (est.), dose: 2.0 mg/kg/injection, schedule: Q07DX005 (ip), vehicle: saline): 64 % of control
T/C (endpoint: median tumor weight (est.), dose: 4.0 mg/kg/injection, schedule: Q07DX005 (ip), vehicle: saline): 66 % of control
T/C (endpoint: median tumor weight (est.), dose: 8.0 mg/kg/injection, schedule: Q07DX005 (ip), vehicle: saline): 11 % of control

Cc1ccc(N)c(N)c1
T/C [2]: 65 % of control
T/C [3]: 48 % of control
T/C [11]: 75 % of control

CC[C@]1(O)C[C@H]2CN(CCc3c([nH]c4ccccc34)[C@@](C(=O)OC)(c3cc4c(cc3OC)N(C)[C@H]3[C@@](O)(C(=O)OC)[C@H](OC(C)=O)[C@]5(CC)C=CCN6CC[C@]43[C@@H]65)C2)C1
T/C (endpoint: median tumor weight (est.), dose: 0.25 mg/kg/injection, schedule: Q07DX005 (ip), vehicle: saline): 70 % of control and 71 % of control
T/C (endpoint: median tumor weight (est.), dose: 0.5 mg/kg/injection, schedule: Q07DX005 (ip), vehicle: saline): 63 % of control and 83 % of control and 84 % of control
T/C (endpoint: median tumor weight change, dose: 1.0 mg/kg/injection, schedule: Q01DX001 (ip), vehicle: saline): 81 % of control
T/C (endpoint: median tumor weight change, dose: 2.0 mg/kg/injection, schedule: Q01DX001 (ip), vehicle: saline): 56 % of control
T/C (endpoint: median tumor weight change, dose: 4.0 mg/kg/injection, schedule: Q01DX001 (ip), vehicle: saline): 28 % of control

O=c1[nH]c(=O)n([C@H]2CCCO2)cc1F
T/C (endpoint: median tumor weight (est.), dose: 12.5 mg/kg/injection, schedule: Q07DX005 (ip), vehicle: Klucel (hydroxypropylcellulose) (HPC)): 100 % of control
T/C [12]: 82 % of control
T/C [13]: 97 % of control
T/C (endpoint: median tumor weight (est.), dose: 50.0 mg/kg/injection, schedule: Q07DX005 (ip), vehicle: Klucel (hydroxypropylcellulose) (HPC)): 102 % of control
T/C (endpoint: median tumor weight (est.), dose: 100.0 mg/kg/injection, schedule: Q07DX005 (ip), vehicle: Klucel (hydroxypropylcellulose) (HPC)): 84 % of control
T/C [14]: 91 % of control
T/C (endpoint: median tumor weight (est.), dose: 200.0 mg/kg/injection, schedule: Q07DX005 (ip), vehicle: Klucel (hydroxypropylcellulose) (HPC)): 95 % of control
T/C (endpoint: median tumor weight (est.), dose: 320.0 mg/kg/injection, schedule: Q07DX005 (ip), vehicle: Klucel (hydroxypropylcellulose) (HPC)): 10 % of control
T/C (endpoint: median tumor weight (est.), dose: 400.0 mg/kg/injection, schedule: Q07DX005 (ip), vehicle: Klucel (hydroxypropylcellulose) (HPC)): 4 % of control

COC(=O)C(Cl)(Cl)N=Nc1c(Cl)cc(Cl)c(C)c1Cl
T/C [5]: 104 % of control
T/C [7]: 71 % of control
T/C (endpoint: median tumor weight (est.), dose: 200.0 mg/kg/injection, schedule: Q07DX005 (ip), vehicle: saline with Tween-80): 85 % of control and 110 % of control
T/C (endpoint: median tumor weight change, dose: 400.0 mg/kg/injection, schedule: Q01DX001 (ip), vehicle: saline with Tween-80): 78 % of control

C=C1C(=O)OCC2C(C(=O)O)=CC3C(C)C(C)=CC123 (configuration not stated)
T/C (endpoint: median tumor weight (est.), dose: 10.0 mg/kg/injection, schedule: Q07DX005 (ip), vehicle: Klucel (hydroxypropylcellulose) (HPC)): 101 % of control
T/C [12]: 95 % of control and 105 % of control
T/C [13]: 100 % of control and 114 % of control
T/C (endpoint: median tumor weight (est.), dose: 80.0 mg/kg/injection, schedule: Q07DX005 (ip), vehicle: Klucel (hydroxypropylcellulose) (HPC)): 75 % of control and 85 % of control
T/C [14]: 101 % of control

Reference: PubChem BioAssay AID220 (DTP/NCI, 2004)
